Assay results as given in ChEMBL document CHEMBL5696439 (Cancer Res, 2010).
The source made the active and inactive calls. The calls are words filed in the database; no cut-off is given here.

Legend:
[1] = target: Protein-tyrosine kinase 6 (Homo sapiens) (UniProt Q13882); experiment: Inhibition of recombinant human full length His-tagged PTK6 expressed in baculovirus expression system at 2 uM using […] as substrate measured after 1 hr by Z'-LYTE assay relative to control
mTORC2 (Homo sapiens) = mTORC2 (Homo sapiens) (UniProt P42345+Q6R327+Q9BVC4+Q9BPZ7); details: U-87 MG, dose 0.025-2 µmol/L, time 6.0 hrs
[2] = target: Tyrosine-protein kinase ZAP-70 (Homo sapiens) (UniProt P43403); experiment: Inhibition of recombinant human full length His-tagged ZAP70 expressed in baculovirus expression system at 2 uM using […] as substrate measured after 1 hr by Z'-LYTE assay relative to control
U-87 MG = experiment: Antitumor activity against human U-87MG cells assessed as reduction in lactate production at 1 micromol/L incubated for 24 hrs relative to control; assay type: functional, U-87MG ATCC; set-up: scale not given: the % may be the effect or the level left; details: dose 1 µmol/L, at 1 µM
[3] = target: Ephrin type-B receptor 1 (Homo sapiens) (UniProt P54762); experiment: Inhibition of recombinant human GST-tagged EPHB1 (613-881 residues) expressed in insect cells at 2 uM using Tyr 02 as substrate measured after 1 hr by Z'-LYTE assay relative to control; details: Insect cell
MDA-MB-361 [4] = experiment: Antitumor activity against human MDA-MB-361 cells xenografted in female nude mouse model assessed as tumor growth delay at po qd administered as 5 days on/2 days off regimen for 4 cycles; assay type: functional, organism-based; details: dose 5-20 mg/kg, time 28.0 day
[5] = target: Dual specificity mitogen-activated protein kinase kinase 2 (Homo sapiens) (UniProt P36507); experiment: Inhibition of recombinant human full length His-tagged MAP2K2 expressed in baculovirus expression system at 2 uM using Ser/Thr 03 as substrate measured after 1 hr by Z'-LYTE assay relative to control
[6] = target: Mitogen-activated protein kinase 3 (Homo sapiens) (UniProt P27361); experiment: Inhibition of recombinant human full length GST-tagged MAPK3 expressed in E. coli at 2 uM using Ser/Thr 03 as substrate measured after 1 hr by Z'-LYTE assay relative to control
[7] = target: Protein kinase C gamma type (Homo sapiens) (UniProt P05129); experiment: Inhibition of recombinant human full length GST-tagged PRKCG expressed in insect cells at 2 uM using Ser/Thr 07 as substrate measured after 1 hr by Z'-LYTE assay relative to control; details: Insect cell
MDA-MB-468 = experiment: Induction of apoptosis in human MDA-MB-468 cells assessed as reduction in S phase at 1 micromol/L incubated for 24 hrs by FACS analysis; assay type: functional, cell-based; details: dose 1.0 µmol/L
[8] = target: AMP-activated protein kinase (AMPK) alpha-1/beta-1/gamma-1 (Homo sapiens) (UniProt P54619+Q9Y478+Q13131); experiment: Inhibition of recombinant human full-length GST/His-tagged AMPKalpha1/beta1/gamma1 expressed in insect cells at 2 uM using Ser/Thr 23 as substrate measured after 1 hr by Z'-LYTE assay relative to control; details: Insect cell
[9] = target: Serine/threonine-protein kinase 3 (Homo sapiens) (UniProt Q13188); experiment: Inhibition of recombinant human full length GST-tagged STK3 expressed in insect cells at 2 uM using Ser/Thr 07 as substrate measured after 1 hr by Z'-LYTE assay relative to control; details: Insect cell
Rat1 = experiment: Inhibition of mTORC1 in rat Rat1 cells assessed as S6K phosphorylation at T389 level preincubated for 1 hrs in the presence of IGF-1 stimulation by immunoblot assay; assay type: cell-based; details: dose 0.01-2 µmol/L
[10] = target: Glycogen synthase kinase-3 alpha (Homo sapiens) (UniProt P49840); experiment: Inhibition of recombinant human full-length GST-tagged GSK3A expressed in insect cells at 2 uM using Ser/Thr 09 as substrate measured after 1 hr by Z'-LYTE assay relative to control; details: Insect cell
[11] = target: Dual specificity protein kinase CLK2 (Homo sapiens) (UniProt P49760); experiment: Inhibition of recombinant human GST-tagged CLK2 (137-498 residues) expressed in insect cells at 2 uM using Ser/Thr 06 as substrate measured after 1 hr by Z'-LYTE assay relative to control; details: Insect cell
786-0 = experiment: Antitumor activity against PTEN null-human 786-0 cells xenografted in female nude mouse model assessed as suppression in tumor growth at 25 mg/kg, po qd administered as 5 days on/2 days off regimen for 4 cycles relative to control; assay type: functional; details: time 28 day
PC3MM2 = experiment: Antitumor activity against human PC3MM2 cells xenografted in female nude mouse model assessed as suppression in P-AKT at S473 level at 50 mg/kg, iv administered once a week and measured at least 8 hrs by immunoblot analysis; assay type: functional, organism-based
[12] = target: SRSF protein kinase 1 (Homo sapiens) (UniProt Q96SB4); experiment: Inhibition of recombinant human full length His-tagged SRPK1 expressed in insect cells at 2 uM using Ser/Thr 18 as substrate measured after 1 hr by Z'-LYTE assay relative to control; details: Insect cell
A549 = experiment: Antitumor activity against human A549 cells xenografted in female nude mouse model assessed as suppression in tumor growth at 50 mg/kg, po qd administered as 5 days on/2 days off regimen for 4 cycles relative to control; assay type: functional; details: time 28 day
BT-474 = experiment: Induction of apoptosis in human BT-474 cells assessed as increase in PARP cleavage at 0.3 to 3 micromol/L incubated for 48 hrs by Western blot analysis; assay type: functional, cell-based; details: dose 0.3-3 µmol/L
[13] = target: Casein kinase II subunit alpha' (Homo sapiens) (UniProt P19784); experiment: Inhibition of recombinant human full-length GST-tagged CSNK2A2 expressed in insect cells at 2 uM using Ser/Thr 11 as substrate measured after 1 hr by Z'-LYTE assay relative to control; details: Insect cell
[14] = target: Serine/threonine-protein kinase MRCK alpha (Homo sapiens) (UniProt Q5VT25); experiment: Inhibition of recombinant human His-tagged CDC42BPA (1-473 residues) expressed in baculovirus expression system at 2 uM using Ser/Thr 13 as substrate measured after 1 hr by Z'-LYTE assay relative to control
MDA-MB-361 [15] = experiment: Antiproliferative activity against human MDA-MB-361 cells assessed as cell growth inhibition at 10 micromol/L incubated for 3 days by MTS assay relative to control; assay type: functional; details: MDA-MB-361, 72 h, dose 10 µmol/L, time 3 day
[16] = target: Tyrosine-protein kinase FRK (Homo sapiens) (UniProt P42685); experiment: Inhibition of recombinant human full-length GST-tagged FRK expressed in baculovirus expression system at 2 uM using Tyr 01 as substrate measured after 1 hr by Z'-LYTE assay relative to control
MDA-MB-361 [17] = experiment: Antitumor activity against human MDA-MB-361 cells xenografted in female nude mouse model assessed as suppression in P-S6 level at 6 to 12 mg/kg, po qd administered as 5 days on/2 days off regimen for 4 cycles by immunoblot analysis; assay type: functional, organism-based; details: dose 6-12 mg/kg, time 28.0 day

Chain of SRSF protein kinase 1 (Homo sapiens) (Q96SB4 whole entry): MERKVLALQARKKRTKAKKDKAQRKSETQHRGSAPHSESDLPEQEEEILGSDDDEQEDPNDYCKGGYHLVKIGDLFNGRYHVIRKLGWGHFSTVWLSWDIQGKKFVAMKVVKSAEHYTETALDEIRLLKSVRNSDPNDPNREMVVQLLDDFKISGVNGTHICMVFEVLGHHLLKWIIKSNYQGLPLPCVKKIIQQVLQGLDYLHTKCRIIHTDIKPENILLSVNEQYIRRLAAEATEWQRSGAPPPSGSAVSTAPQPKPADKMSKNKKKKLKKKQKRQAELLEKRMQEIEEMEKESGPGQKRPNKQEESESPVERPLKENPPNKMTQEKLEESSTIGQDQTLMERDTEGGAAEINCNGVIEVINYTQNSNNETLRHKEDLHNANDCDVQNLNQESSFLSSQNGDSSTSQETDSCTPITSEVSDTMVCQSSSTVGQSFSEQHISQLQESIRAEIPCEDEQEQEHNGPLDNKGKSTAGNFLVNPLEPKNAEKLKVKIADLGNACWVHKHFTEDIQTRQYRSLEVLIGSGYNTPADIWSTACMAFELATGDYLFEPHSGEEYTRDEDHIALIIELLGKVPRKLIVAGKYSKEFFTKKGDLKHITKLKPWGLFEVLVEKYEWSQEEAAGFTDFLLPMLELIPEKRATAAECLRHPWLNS
Chain of Dual specificity mitogen-activated protein kinase kinase 2 (Homo sapiens) (P36507 whole entry): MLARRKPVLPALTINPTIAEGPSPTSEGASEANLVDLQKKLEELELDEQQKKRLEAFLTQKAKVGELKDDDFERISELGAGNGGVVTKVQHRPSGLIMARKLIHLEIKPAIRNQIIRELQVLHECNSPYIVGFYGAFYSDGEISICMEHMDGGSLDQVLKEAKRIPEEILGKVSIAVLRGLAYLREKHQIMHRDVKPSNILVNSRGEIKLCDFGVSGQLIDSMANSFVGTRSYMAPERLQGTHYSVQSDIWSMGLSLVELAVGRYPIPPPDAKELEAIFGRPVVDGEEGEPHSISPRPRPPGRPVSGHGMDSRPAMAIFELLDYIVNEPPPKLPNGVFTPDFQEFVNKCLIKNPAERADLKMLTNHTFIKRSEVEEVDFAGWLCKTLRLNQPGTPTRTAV
Chain of AMP-activated protein kinase (AMPK) alpha-1/beta-1/gamma-1 (Homo sapiens) (P54619 whole entry): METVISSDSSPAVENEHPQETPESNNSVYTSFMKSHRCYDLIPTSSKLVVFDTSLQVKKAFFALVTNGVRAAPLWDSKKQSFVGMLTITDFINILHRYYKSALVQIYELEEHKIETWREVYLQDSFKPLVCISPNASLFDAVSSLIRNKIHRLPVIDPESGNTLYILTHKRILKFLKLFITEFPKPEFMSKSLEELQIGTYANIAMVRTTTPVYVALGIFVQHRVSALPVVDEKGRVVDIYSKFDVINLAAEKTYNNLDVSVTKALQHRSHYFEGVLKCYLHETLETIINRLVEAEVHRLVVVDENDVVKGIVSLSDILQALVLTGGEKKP
Chain of AMP-activated protein kinase (AMPK) alpha-1/beta-1/gamma-1 (Homo sapiens) (Q13131 whole entry partner): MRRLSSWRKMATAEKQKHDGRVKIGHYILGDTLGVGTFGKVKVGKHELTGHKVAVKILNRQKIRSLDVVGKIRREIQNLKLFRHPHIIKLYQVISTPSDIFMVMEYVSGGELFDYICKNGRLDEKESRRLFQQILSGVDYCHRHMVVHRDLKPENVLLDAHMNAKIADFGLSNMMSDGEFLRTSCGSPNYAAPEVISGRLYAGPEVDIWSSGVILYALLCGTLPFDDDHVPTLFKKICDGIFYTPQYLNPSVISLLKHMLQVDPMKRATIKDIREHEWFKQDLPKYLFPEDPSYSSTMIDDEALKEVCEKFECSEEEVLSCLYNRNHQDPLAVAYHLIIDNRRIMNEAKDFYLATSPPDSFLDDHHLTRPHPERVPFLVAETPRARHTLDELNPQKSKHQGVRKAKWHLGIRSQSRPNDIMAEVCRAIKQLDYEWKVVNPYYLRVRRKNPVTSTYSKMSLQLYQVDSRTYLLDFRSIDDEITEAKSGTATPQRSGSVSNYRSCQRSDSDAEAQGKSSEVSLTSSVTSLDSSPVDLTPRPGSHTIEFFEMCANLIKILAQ
Chain of AMP-activated protein kinase (AMPK) alpha-1/beta-1/gamma-1 (Homo sapiens) (Q9Y478 2-270 partner limits assumed): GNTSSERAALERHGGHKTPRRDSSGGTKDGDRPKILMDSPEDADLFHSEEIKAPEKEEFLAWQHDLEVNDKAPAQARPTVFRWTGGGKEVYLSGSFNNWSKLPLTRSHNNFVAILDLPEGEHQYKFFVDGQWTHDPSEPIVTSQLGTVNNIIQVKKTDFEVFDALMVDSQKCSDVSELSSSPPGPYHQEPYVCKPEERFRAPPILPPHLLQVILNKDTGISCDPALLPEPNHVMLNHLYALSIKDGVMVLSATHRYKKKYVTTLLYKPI
Chain of Glycogen synthase kinase-3 alpha (Homo sapiens) (P49840 2-483 limits assumed): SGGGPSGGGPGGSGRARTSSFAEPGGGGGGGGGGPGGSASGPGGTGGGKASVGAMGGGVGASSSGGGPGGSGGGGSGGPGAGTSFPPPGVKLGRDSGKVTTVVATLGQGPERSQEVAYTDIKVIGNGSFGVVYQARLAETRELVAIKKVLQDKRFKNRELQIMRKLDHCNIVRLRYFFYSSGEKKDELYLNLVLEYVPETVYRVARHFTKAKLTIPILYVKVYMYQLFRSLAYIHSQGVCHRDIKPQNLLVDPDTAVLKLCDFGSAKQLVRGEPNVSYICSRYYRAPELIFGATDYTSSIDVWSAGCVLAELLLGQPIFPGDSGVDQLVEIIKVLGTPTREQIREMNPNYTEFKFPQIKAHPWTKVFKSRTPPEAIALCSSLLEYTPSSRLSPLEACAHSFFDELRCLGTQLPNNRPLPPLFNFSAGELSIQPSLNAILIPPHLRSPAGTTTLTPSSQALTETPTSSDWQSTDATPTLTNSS
Chain of Serine/threonine-protein kinase MRCK alpha (Homo sapiens) (Q5VT25 whole entry, the tested form may be a part): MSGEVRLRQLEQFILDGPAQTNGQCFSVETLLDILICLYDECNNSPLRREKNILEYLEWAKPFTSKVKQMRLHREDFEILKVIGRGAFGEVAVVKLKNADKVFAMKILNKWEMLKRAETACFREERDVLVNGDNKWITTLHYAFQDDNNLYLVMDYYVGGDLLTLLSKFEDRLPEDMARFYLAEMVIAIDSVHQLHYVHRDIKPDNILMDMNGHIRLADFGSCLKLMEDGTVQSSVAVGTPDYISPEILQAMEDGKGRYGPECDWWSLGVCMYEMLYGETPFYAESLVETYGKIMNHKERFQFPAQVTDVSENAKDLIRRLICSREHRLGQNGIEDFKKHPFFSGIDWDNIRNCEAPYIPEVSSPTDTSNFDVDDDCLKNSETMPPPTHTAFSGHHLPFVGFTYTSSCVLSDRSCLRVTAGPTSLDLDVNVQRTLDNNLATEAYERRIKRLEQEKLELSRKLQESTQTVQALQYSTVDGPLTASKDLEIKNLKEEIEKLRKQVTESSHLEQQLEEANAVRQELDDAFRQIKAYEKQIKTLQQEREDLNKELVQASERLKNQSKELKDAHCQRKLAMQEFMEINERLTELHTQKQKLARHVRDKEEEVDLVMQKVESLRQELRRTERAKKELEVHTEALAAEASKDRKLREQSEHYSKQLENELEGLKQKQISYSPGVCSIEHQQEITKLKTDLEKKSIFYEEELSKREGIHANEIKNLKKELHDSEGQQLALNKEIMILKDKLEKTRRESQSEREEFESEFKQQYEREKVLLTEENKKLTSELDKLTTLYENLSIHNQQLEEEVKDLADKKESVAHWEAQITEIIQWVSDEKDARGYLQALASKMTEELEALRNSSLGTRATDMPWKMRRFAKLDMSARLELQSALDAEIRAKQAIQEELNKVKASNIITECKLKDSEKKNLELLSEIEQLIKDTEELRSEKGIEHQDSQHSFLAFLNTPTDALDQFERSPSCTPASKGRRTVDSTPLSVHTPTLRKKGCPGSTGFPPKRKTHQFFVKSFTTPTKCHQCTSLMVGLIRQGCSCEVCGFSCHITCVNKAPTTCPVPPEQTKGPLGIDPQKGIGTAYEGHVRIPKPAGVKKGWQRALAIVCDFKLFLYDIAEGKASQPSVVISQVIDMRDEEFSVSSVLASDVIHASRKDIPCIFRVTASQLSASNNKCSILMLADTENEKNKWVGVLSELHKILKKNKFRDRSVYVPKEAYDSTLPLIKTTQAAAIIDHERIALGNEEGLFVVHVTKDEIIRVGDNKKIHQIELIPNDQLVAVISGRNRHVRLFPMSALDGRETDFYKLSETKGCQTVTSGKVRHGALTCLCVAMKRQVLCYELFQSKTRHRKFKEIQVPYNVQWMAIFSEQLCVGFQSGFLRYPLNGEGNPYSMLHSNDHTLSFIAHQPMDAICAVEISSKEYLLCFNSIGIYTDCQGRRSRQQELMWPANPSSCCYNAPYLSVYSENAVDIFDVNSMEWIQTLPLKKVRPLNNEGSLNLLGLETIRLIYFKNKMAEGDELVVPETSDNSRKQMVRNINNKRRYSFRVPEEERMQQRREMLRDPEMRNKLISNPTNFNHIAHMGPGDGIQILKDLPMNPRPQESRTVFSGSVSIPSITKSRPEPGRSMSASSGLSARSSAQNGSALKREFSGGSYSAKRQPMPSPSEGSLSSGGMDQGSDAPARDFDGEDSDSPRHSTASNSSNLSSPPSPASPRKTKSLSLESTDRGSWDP
Chain of Casein kinase II subunit alpha' (Homo sapiens) (P19784 whole entry, looked up, the tested form may be a part): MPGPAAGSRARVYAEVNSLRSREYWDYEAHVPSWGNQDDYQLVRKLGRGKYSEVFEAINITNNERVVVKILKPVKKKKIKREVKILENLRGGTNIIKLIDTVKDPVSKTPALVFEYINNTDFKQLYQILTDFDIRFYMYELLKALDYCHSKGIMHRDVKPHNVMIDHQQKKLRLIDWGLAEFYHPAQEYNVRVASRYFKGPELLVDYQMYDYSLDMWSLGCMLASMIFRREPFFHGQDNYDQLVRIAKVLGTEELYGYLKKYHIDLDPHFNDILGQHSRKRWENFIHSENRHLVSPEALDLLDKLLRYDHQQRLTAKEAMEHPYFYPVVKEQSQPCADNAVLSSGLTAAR

`CNC(=O)Nc1ccc(-c2nc(N3CC4CCC(C3)O4)c3cnn(C4CCC5(CC4)OCCO5)c3n2)cc1` was tested, and the inhibition [1] was 8%, the inhibition (mTORC2 (Homo sapiens)) was “inactive” and the inhibition [2] was 7%. For the same compound, the Activity (U-87 MG) was 48%, the inhibition [3] was 2% and the Activity (MDA-MB-361 [4]) was “Dose-Dependent Effect”. For the same compound, the inhibition [5] was 2%, the inhibition [6] was 1% and the inhibition [7] was 11%. The Activity (MDA-MB-468) was “Active”, the inhibition [8] was 5% and the inhibition [9] was 0%. The inhibition (Rat1) was “Active”, the inhibition [10] was -1% and the inhibition [11] was 0%. The Activity (786-0) was 100%, the Activity (PC3MM2) was “Active” and the inhibition [12] was 2%. For the same compound, the Activity (A549) was 100%, the Activity (BT-474) was “Active” and the inhibition [13] was 3%. The inhibition [14] was 7%, the inhibition at 10 µM (MDA-MB-361 [15]) was 100% and the inhibition [16] was 3%. For the same compound, the Activity (MDA-MB-361 [17]) was “Active”.
